Test results published in patent publication US10555987B2, “GHRH agonists for the treatment of ischemic disorders” (UNIVERSITY OF MIAMI, priority 2012, dated 2020).
Non-standard residues stand in square brackets, D forms with d. Residues, ends and D or L forms follow the SMILES beside them. *: point of attachment. Phe(F5) = N[C@@H](Cc1c(F)c(F)c(F)c(F)c1F)C(=O)O; Desaminotyrosyl = O=C(CCc1ccc(O)cc1)*; NMeY = CN[C@@H](Cc1ccc(O)cc1)C(=O)O; Agmatine = N=C(N)NCCCCN*; NMeA = CN[C@@H](C)C(=O)O; Nle = CCCC[C@H](N)C(=O)O; Orn = NCCC[C@H](N)C(=O)O; Abu = CC[C@H](N)C(=O)O

Experiments:
GH release = experiment: In vivo endocrine activity, GH release after subcutaneous administration (Table 9); settings: rat, subcutaneous (s.c.) injection
Description: Subcutaneous Administration. Adult male rats were used and anesthetized with pentobarbital (6 mg/100 g, b.w.), by i.p. injection. […] Blood samples were taken from the jugular vein 5, 15 and/or 30 minutes after the injection. The blood samples were centrifuged, plasma was removed and the GH level was measured byELISA. The results are summarized in terms of potency in Table 9.

GHRH receptor = biological target: T1, GHRH receptor (Homo sapiens, UniProt Q02643); experiment: GHRH receptor binding, competition with 125I-labeled JV-1-42, human pituitary membrane homogenates (Table 7); parameters: Normal human pituitaries were purchased from the National Hormone and Peptide Program; tissue National Hormone and Peptide Program (A.F. Parlow, Harbor-UCLA Medical Center, Torrance, Calif.); host or cells: normal human pituitary, membrane fraction; settings: for Relative affinity (Binding potency) vs JI-38: JI-38 = 1, Table 7
T1 sequence (Q02643 23-423): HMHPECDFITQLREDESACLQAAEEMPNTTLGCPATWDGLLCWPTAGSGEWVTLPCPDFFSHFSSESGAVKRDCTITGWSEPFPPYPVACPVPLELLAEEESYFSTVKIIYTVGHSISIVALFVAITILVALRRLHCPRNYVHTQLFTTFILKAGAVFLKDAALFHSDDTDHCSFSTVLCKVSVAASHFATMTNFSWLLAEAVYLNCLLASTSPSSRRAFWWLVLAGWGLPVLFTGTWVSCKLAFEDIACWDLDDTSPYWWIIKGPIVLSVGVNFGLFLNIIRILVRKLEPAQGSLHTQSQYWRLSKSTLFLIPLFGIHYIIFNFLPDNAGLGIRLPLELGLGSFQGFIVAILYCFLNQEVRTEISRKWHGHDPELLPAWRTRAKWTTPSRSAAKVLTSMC
Source text: Normal human pituitaries were purchased from the National Hormone and Peptide Program (A.F. Parlow, Los Angeles, County Harbor-UCLA Medical Center, Torrance, Calif.).

Compound | GH releasing potency relative to JI-38 (=1) (GH release; 5 min after) | GH releasing potency relative to JI-38 (=1) (GH release; 15 min after) | GH releasing potency relative to JI-38 (=1) (GH release; 30 min after) | IC50 (GHRH receptor; 125I-JV-1-42, human pituitary membranes, Table 7) | Relative affinity (Binding potency) vs JI-38 (GHRH receptor)
CCCC[C@H](NC(=O)[C@@H](NC(=O)[C@H](CC(=O)O)NC(=O)[C@H](CCC(N)=O)NC(=O)[C@H](CC(C)C)NC(=O)[C@H](CC(C)C)NC(=O)[C@H](CCCN)NC(=O)[C@H](CCCNC(=N)N)NC(=O)[C@H](C)NC(=O)[C@H](CO)NC(=O)[C@H](CC(C)C)NC(=O)[C@H](CCC(N)=O)NC(=O)[C@H](CC)NC(=O)[C@H](CC(C)C)NC(=O)[C@@H](NC(=O)[C@H](CCCN)NC(=O)[C@H](CCCNC(=N)N)NC(=O)[C@H](Cc1ccc(O)cc1)NC(=O)[C@H](CO)NC(=O)[C@H](C)N(C)C(=O)[C@@H](NC(=O)[C@H](Cc1ccccc1)NC(=O)[C@@H](NC(=O)[C@H](C)NC(=O)[C@H](CC(=O)O)NC(=O)[C@@H](C)NC(=O)CCc1ccc(O)cc1)[C@@H](C)CC)[C@@H](C)O)C(C)C)[C@@H](C)CC)C(=O)N[C@@H](CC(=O)O)C(=O)NCCCCNC(=N)N [Peptide P-20357, [Dat^1, D-Ala^2, N—Me-Ala^8, Orn^12, Abu^15, Orn^21, Nle^27, Asp^28, Agm^29]hGHRH (1-29)NH2] (Desaminotyrosyl-[dA]DAIFT[NMeA]SYR[Orn]VL[Abu]QLSAR[Orn]LLQDI[Nle]D-Agmatine) | 0.63 | 1.07 | 1.41 | 0.86 nM | 5.06
CCCC[C@H](NC(=O)[C@@H](NC(=O)[C@H](CC(=O)O)NC(=O)[C@H](CCC(N)=O)NC(=O)[C@H](CC(C)C)NC(=O)[C@H](CC(C)C)NC(=O)[C@H](CCCN)NC(=O)[C@H](CCCNC(=N)N)NC(=O)[C@H](C)NC(=O)[C@H](CO)NC(=O)[C@H](CC(C)C)NC(=O)[C@H](CCC(N)=O)NC(=O)[C@H](CC)NC(=O)[C@H](CC(C)C)NC(=O)[C@@H](NC(=O)[C@H](CCCN)NC(=O)[C@H](CCCNC(=N)N)NC(=O)[C@H](Cc1ccc(O)cc1)NC(=O)[C@H](CO)NC(=O)[C@H](CC(N)=O)NC(=O)[C@@H](NC(=O)[C@H](Cc1c(F)c(F)c(F)c(F)c1F)NC(=O)[C@@H](NC(=O)[C@H](C)NC(=O)[C@H](CC(=O)O)NC(=O)[C@@H](C)NC(=O)[C@H](Cc1ccc(O)cc1)NC)[C@@H](C)CC)[C@@H](C)O)C(C)C)[C@@H](C)CC)C(=O)N[C@@H](CC(=O)O)C(=O)NCCCCNC(=N)N [Peptide P-20359, [N—Me-Tyr^1, D-Ala^2, Fpa5^6, Orn^12, Abu^15, Orn^21, Nle^27, Asp^28, Agm^29]hGHRH (1-29)NH2] (H-[NMeY][dA]DAI[Phe(F5)]TNSYR[Orn]VL[Abu]QLSAR[Orn]LLQDI[Nle]D-Agmatine) | – | – | – | – | 1.43
[N—Me-D-Tyr^1, D-Ala^2, Gln^8, Orn^12, Abu^15, Orn^21, Nle^27, Asp^28]hGHRH(1-29)NH—CH3 [Peptide P-27425] | – | 0.49 | 0.31 | – | –
[N—Me-Tyr^1, D-Ala^2, Ala^8, Orn^12, Abu^15, Orn^21, Nle^27, Asp^28]hGHRH (1-29)NH—CH3 [Peptide P-27412] | – | 1.10 | 1.29 | – | –
[N—Me-Tyr^1, D-Ala^2, Gln^8, Orn^12, Abu^15, Orn^21, Nle^27, Asp^28, Gln-Gab^30] hGHRH](1-30)NH2 [Peptide P-29701] | 0.92 | 1.30 | 1.55 | – | –
[N—Me-Tyr^1, D-Ala^2, Thr^8, Orn^12, Abu^15, Orn^21, Nle^27, Asp^28, Agm^29] hGHRH (1-29)NH2 [Peptide P-20360] | – | 0.24 | 0.39 | – | –
[N—Me-Tyr^1, Gln^8, Orn^12, Abu^15, Orn^21, Nle^27, Agm^29]hGHRH(1-29)NH2 [Peptide P-20373] | – | 0.23 | 0.88 | – | –
